Data: patent US7943575B2, “Sustained release drug formulations containing a carrier peptide” (Ipsen Pharma S.A.S., priority 2002, dated 2011)
Where two headings read alike, the source gives them in different places.

Experiment: Pharmacokinetic profile of a SOMATULINE/DECAPEPTYL composition in beagle dogs (RIA of blood samples)
Type: in vivo
Description: Once a particular peptide or peptide salt is found to gel in an in vitro assay, e.g., an assay as described above, an in vivo assay can be used to determine the suitability of that peptide salt for use as a sustained-release carrier peptide of a therapeutic agent or agents in animals or humans. A blood level release profile for the carrier peptide and/or the therapeutic agent or agents can be determined by injecting the composition into an animal, e.g., a Sprague Dawley rat, a dog, etc., and testing blood samples taken at specific time intervals, e.g., hourly intervals over 1 to 5 days, or 12 or 24 hour intervals over 5 to 45 days, for the concentration of the peptide and/or therapeutic agent or agents. The suitability of a particular peptide gel, or a peptide/carrier gel, for therapeutic delivery of the carrier peptide and/or therapeutic agent or agents can thus be determined.
Generally, in such an assay animals are anaesthetized with pentobarbital (60 mg/kg i.p. for rats), and a jugular vein is cannulated for blood sampling. A test semisolid suspension or solid composition (or standard solution for comparison purposes), e.g., a SOMATULINE/DECAPEPTYL mixture, is injected subcutaneously at a specific dosage, e.g., 1.0, 3.0, or 6.0 mg/kg of SOMATULINE. After administration of the composition or solution, heparinized blood samples are obtained through the cannula at set time intervals, and plasma is separated after centrifugation. The amount of carrier peptide and/or therapeutic agent(s) in the plasma samples is/are determined by, e.g., a standard radioimmunoassay (RIA) technique that allows a direct measurement of the carrier peptide and/or therapeutic agent(s) without extraction from the rat plasma. The resulting data are plotted (e.g., blood concentration (ng/ml) vs. time) to establish a blood level release profile.
0.15 ml of the foregoing semisolid mixture from Example 1 was loaded into a 0.3 ml insulin syringe and was injected into beagle dogs. Blood samples were collected and standard radioimmunoassay (RIA) analysis was performed thereon.

Molecule `CC(C)C[C@H](NC(=O)[C@@H](Cc1c[nH]c2ccccc12)NC(=O)[C@H](Cc1ccc(O)cc1)NC(=O)[C@H](CO)NC(=O)[C@H](Cc1c[nH]c2ccccc12)NC(=O)[C@H](Cc1c[nH]cn1)NC(=O)[C@@H]1CCC(=O)N1)C(=O)N[C@@H](CCCNC(=N)N)C(=O)N1CCC[C@H]1C(=O)NCC(N)=O` [DECAPEPTYL] has a level at 0.24 h (beagle, dog, in vivo, 0.15 ml) of 2.66 ng/mL, a level at 0.48 h (beagle, dog, in vivo, 0.15 ml) of 6.04 ng/mL and a level at 0.96 h (beagle, dog, in vivo, 0.15 ml) of 9.97 ng/mL. It also gave a level at 1.92 h (beagle, dog, in vivo, 0.15 ml) of 16.4 ng/mL, a level at 4.08 h (beagle, dog, in vivo, 0.15 ml) of 17.3 ng/mL and a level at 6 h (beagle, dog, in vivo, 0.15 ml) of 21.2 ng/mL. The level at 9.12 h (beagle, dog, in vivo, 0.15 ml) was 23.1 ng/mL, the level at 24 h (beagle, dog, in vivo, 0.15 ml) was 8.11 ng/mL and the level at 47.76 h (beagle, dog, in vivo, 0.15 ml) was 3.97 ng/mL. It also gave a level at 72.48 h (beagle, dog, in vivo, 0.15 ml) of 3.16 ng/mL, a level at 144.96 h (beagle, dog, in vivo, 0.15 ml) of 1.35 ng/mL and a level at 192.96 h (beagle, dog, in vivo, 0.15 ml) of 0.94 ng/mL. For the same molecule, the level at 241.44 h (beagle, dog, in vivo, 0.15 ml) was 0.5 ng/mL, the level at 312.96 h (beagle, dog, in vivo, 0.15 ml) was 0.42 ng/mL and the level at 361.2 h (beagle, dog, in vivo, 0.15 ml) was 0.32 ng/mL. For the same molecule, the level at 408.48 h (beagle, dog, in vivo, 0.15 ml) was 0.24 ng/mL, the level at 483.36 h (beagle, dog, in vivo, 0.15 ml) was 0.19 ng/mL and the level at 528.96 h (beagle, dog, in vivo, 0.15 ml) was 0.13 ng/mL. For the same molecule, the level at 577.44 h (beagle, dog, in vivo, 0.15 ml) was 0.11 ng/mL, the level at 650.88 h (beagle, dog, in vivo, 0.15 ml) was 0.07 ng/mL and the “duration of sustained release of therapeutic levels in the blood” value (dog, in vivo) was “one month or longer”.
In the case of `CC(C)[C@@H]1NC(=O)[C@H](CCCCN)NC(=O)[C@@H](Cc2c[nH]c3ccccc23)NC(=O)[C@H](Cc2ccc(O)cc2)NC(=O)[C@@H](NC(=O)[C@H](N)Cc2ccc3ccccc3c2)CSSC[C@@H](C(=O)N[C@H](C(N)=O)[C@@H](C)O)NC1=O` [SOMATULINE, lanreotide], the level at 0 h (dog, in vivo, TIME 0.00 days, beagle dogs, 0.15 ml Example 1 semisolid mixture injected, read-out: concentration in blood samples (RIA)) is reported as 0.02 ng/mL, the level at 0.24 h (dog, in vivo, TIME 0.01 days, beagle dogs, 0.15 ml Example 1 semisolid mixture injected, read-out: concentration in blood samples (RIA)) is reported as 3.91 ng/mL and the level at 0.48 h (dog, in vivo, TIME 0.02 days, beagle dogs, 0.15 ml Example 1 semisolid mixture injected, read-out: concentration in blood samples (RIA)) is reported as 7.29 ng/mL. For the same molecule, the level at 0.96 h (dog, in vivo, TIME 0.04 days, beagle dogs, 0.15 ml Example 1 semisolid mixture injected, read-out: concentration in blood samples (RIA)) was 9.34 ng/mL, the level at 1.92 h (dog, in vivo, TIME 0.08 days, beagle dogs, 0.15 ml Example 1 semisolid mixture injected, read-out: concentration in blood samples (RIA)) was 12.6 ng/mL and the level at 4.08 h (dog, in vivo, TIME 0.17 days, beagle dogs, 0.15 ml Example 1 semisolid mixture injected, read-out: concentration in blood samples (RIA)) was 17.3 ng/mL. For the same molecule, the level at 6 h (dog, in vivo, TIME 0.25 days, beagle dogs, 0.15 ml Example 1 semisolid mixture injected, read-out: concentration in blood samples (RIA)) was 19.5 ng/mL, the level at 9.12 h (dog, in vivo, TIME 0.38 days, beagle dogs, 0.15 ml Example 1 semisolid mixture injected, read-out: concentration in blood samples (RIA)) was 17.8 ng/mL and the level at 24 h (dog, in vivo, TIME 1.00 days, beagle dogs, 0.15 ml Example 1 semisolid mixture injected, read-out: concentration in blood samples (RIA)) was 11.4 ng/mL. The level at 47.76 h (dog, in vivo, TIME 1.99 days, beagle dogs, 0.15 ml Example 1 semisolid mixture injected, read-out: concentration in blood samples (RIA)) was 9.51 ng/mL, the level at 72.48 h (dog, in vivo, TIME 3.02 days, beagle dogs, 0.15 ml Example 1 semisolid mixture injected, read-out: concentration in blood samples (RIA)) was 7.77 ng/mL and the level at 144.96 h (dog, in vivo, TIME 6.04 days, beagle dogs, 0.15 ml Example 1 semisolid mixture injected, read-out: concentration in blood samples (RIA)) was 6.63 ng/mL. It also gave a level at 192.96 h (dog, in vivo, TIME 8.04 days, beagle dogs, 0.15 ml Example 1 semisolid mixture injected, read-out: concentration in blood samples (RIA)) of 5.99 ng/mL, a level at 241.44 h (dog, in vivo, TIME 10.06 days, beagle dogs, 0.15 ml Example 1 semisolid mixture injected, read-out: concentration in blood samples (RIA)) of 4.88 ng/mL and a level at 312.96 h (dog, in vivo, TIME 13.04 days, beagle dogs, 0.15 ml Example 1 semisolid mixture injected, read-out: concentration in blood samples (RIA)) of 3.14 ng/mL. For the same molecule, the level at 361.2 h (dog, in vivo, TIME 15.05 days, beagle dogs, 0.15 ml Example 1 semisolid mixture injected, read-out: concentration in blood samples (RIA)) was 2.54 ng/mL, the level at 408.48 h (dog, in vivo, TIME 17.02 days, beagle dogs, 0.15 ml Example 1 semisolid mixture injected, read-out: concentration in blood samples (RIA)) was 1.85 ng/mL and the level at 483.36 h (dog, in vivo, TIME 20.14 days, beagle dogs, 0.15 ml Example 1 semisolid mixture injected, read-out: concentration in blood samples (RIA)) was 1.46 ng/mL. It also gave a level at 528.96 h (dog, in vivo, TIME 22.04 days, beagle dogs, 0.15 ml Example 1 semisolid mixture injected, read-out: concentration in blood samples (RIA)) of 1.3 ng/mL, a level at 577.44 h (dog, in vivo, TIME 24.06 days, beagle dogs, 0.15 ml Example 1 semisolid mixture injected, read-out: concentration in blood samples (RIA)) of 1.11 ng/mL and a level at 650.88 h (dog, in vivo, TIME 27.12 days, beagle dogs, 0.15 ml Example 1 semisolid mixture injected, read-out: concentration in blood samples (RIA)) of 0.65 ng/mL. It also gave a level at 698.64 h (dog, in vivo, TIME 29.11 days, beagle dogs, 0.15 ml Example 1 semisolid mixture injected, read-out: concentration in blood samples (RIA)) of 0.52 ng/mL, a level at 745.2 h (dog, in vivo, TIME 31.05 days, beagle dogs, 0.15 ml Example 1 semisolid mixture injected, read-out: concentration in blood samples (RIA)) of 0.52 ng/mL and a level at 818.64 h (dog, in vivo, TIME 34.11 days, beagle dogs, 0.15 ml Example 1 semisolid mixture injected, read-out: concentration in blood samples (RIA)) of 0.5 ng/mL. It also gave a level at 866.88 h (dog, in vivo, TIME 36.12 days, beagle dogs, 0.15 ml Example 1 semisolid mixture injected, read-out: concentration in blood samples (RIA)) of 0.45 ng/mL, a level at 912.72 h (dog, in vivo, TIME 38.03 days, beagle dogs, 0.15 ml Example 1 semisolid mixture injected, read-out: concentration in blood samples (RIA)) of 0.34 ng/mL and a level at 984.72 h (dog, in vivo, TIME 41.03 days, beagle dogs, 0.15 ml Example 1 semisolid mixture injected, read-out: concentration in blood samples (RIA)) of 0.27 ng/mL. For the same molecule, the level at 1082.4 h (dog, in vivo, TIME 45.10 days, beagle dogs, 0.15 ml Example 1 semisolid mixture injected, read-out: concentration in blood samples (RIA)) was 0.17 ng/mL, the level at 1160.64 h (dog, in vivo, TIME 48.36 days, beagle dogs, 0.15 ml Example 1 semisolid mixture injected, read-out: concentration in blood samples (RIA)) was 0.14 ng/mL and the level at 1199.76 h (dog, in vivo, TIME 49.99 days, beagle dogs, 0.15 ml Example 1 semisolid mixture injected, read-out: concentration in blood samples (RIA)) was 0.15 ng/mL. The level at 1248.24 h (dog, in vivo, TIME 52.01 days, beagle dogs, 0.15 ml Example 1 semisolid mixture injected, read-out: concentration in blood samples (RIA)) was 0.21 ng/mL, the level at 1368.96 h (dog, in vivo, TIME 57.04 days, beagle dogs, 0.15 ml Example 1 semisolid mixture injected, read-out: concentration in blood samples (RIA)) was 0.14 ng/mL and the level at 1417.92 h (dog, in vivo, TIME 59.08 days, beagle dogs, 0.15 ml Example 1 semisolid mixture injected, read-out: concentration in blood samples (RIA)) was 0.27 ng/mL. It also gave a level at 1536.48 h (dog, in vivo, TIME 64.02 days, beagle dogs, 0.15 ml Example 1 semisolid mixture injected, read-out: concentration in blood samples (RIA)) of 0.21 ng/mL, a level at 1584.48 h (dog, in vivo, TIME 66.02 days, beagle dogs, 0.15 ml Example 1 semisolid mixture injected, read-out: concentration in blood samples (RIA)) of 0.2 ng/mL and a level at 1656.24 h (dog, in vivo, TIME 69.01 days, beagle dogs, 0.15 ml Example 1 semisolid mixture injected, read-out: concentration in blood samples (RIA)) of 0.16 ng/mL. For the same molecule, the level at 1707.6 h (dog, in vivo, TIME 71.15 days, beagle dogs, 0.15 ml Example 1 semisolid mixture injected, read-out: concentration in blood samples (RIA)) was 0.15 ng/mL and the “duration of sustained release of therapeutic levels in the blood” value (gel with SOMATULINE as carrier peptide and DECAPEPTYL as therapeutic agent, see Example 1) was “one month or longer”.
